Assay results reported in paper PMC10724293, “New ruthenium-xanthoxylin complex eliminates colorectal cancer stem cells by targeting the heat shock protein 90 chaperone” (Cell Death & Disease, 2023).

Key:
[1] = test system: 4T1; assay: Alamar blue cytotoxicity assay; type: cell-based, mouse; conditions: 72 h, read-out: IC50 and 95%CI
Description: (§1) The Alamar blue assay was used to determine cell viability as previously described. Cells were seeded into 96-well plates at a density of 7 × 10^3 cells per well for adherent cells or 3 × 10^4 cells per well for suspended cells. The drug was added to each well after 24 h of incubation for adherent cells or immediately for suspended cells and incubated for an additional 72 h. […] Each well received 100 µM resazurin (Sigma-Aldrich Co. St. Louis, MO, United States) four (for cell lines) or 24 (for primary culture) h before the end of the incubation. A SpectraMax 190 Microplate Reader (Molecular Devices, Sunnyvale, CA, USA) was used to measure absorbance at 570 and 600 nm.

[2] = test system: B16-F10; assay: Alamar blue cytotoxicity assay; type: cell-based, mouse; conditions: 72 h, read-out: IC50 and 95%CI
Description: as §1

[3] = test system: HCT116 cells; assay: Cell cycle distribution and internucleosomal DNA fragmentation by flow cytometry; type: cell-based, human
Description: For quantification of internucleosomal DNA fragmentation and cell cycle distribution, the cells were stained with PI using a solution containing 0.1% Triton X-100, 2 µg/ml PI, 0.1% sodium citrate, and 100 µg/ml RNAse (all from Sigma-Aldrich) and incubated in the dark for 15 min at room temperature. Finally, cell fluorescence was measured using flow cytometry.
(§2) For all flow cytometry analyses, cell fluorescence was measured with a BD LSRFortessa cytometer and analyzed by BD FACSDiva Software (BD Biosciences) and FlowJo Software 10 (FlowJo LLC; Ashland, OR, USA). At least 10,000 events were evaluated per sample for intracellular staining, and at least 30,000 events were acquired per sample for cell surface protein staining. FSC-A versus FCS-H and SCC-A versus SCC-H were used to remove the doublets. The analysis excluded cellular debris.

[4] = test system: HCT116 cells; assay: Protein expression levels by flow cytometry; type: cell-based, human; conditions: 10 μM, 24 h
Description: Flow cytometry was used to measure protein expression levels using primary antibodies conjugated with specific fluorochromes, as detailed in Table S5. For intracellular protein staining, cells were collected and resuspended in 0.5–1 ml of 4% formaldehyde for 10 min at 37 °C. The tubes were then kept on ice for 1 min and permeabilized for 30 min on ice by slowly adding ice-cold 100% methanol to prechilled cells while gently vortexing to a final concentration of 90% methanol. After washing with incubation buffer (0.5% bovine serum albumin in PBS), antibodies were added and incubated at room temperature for 1 h. Finally, the cells were washed with PBS, and the fluorescence of the cells was measured using flow cytometry.
For cell surface protein staining, cells were washed with incubation buffer (0.5% bovine serum albumin in PBS), and then antibodies were added and incubated for 1 h at room temperature. The cells were then washed with PBS, and cell fluorescence was measured using flow cytometry. To select viable cells for quantification of CD133-positive cells, YO-PRO-1 (Sigma-Aldrich Co.) was used.
as §2

[5] = test system: HCT116 cells; assay: Colony-forming assay; type: cell-based, human; conditions: 24, 48, 72 h treatment, 14 days culture
Description: To test clonogenic ability, 1000 cells were seeded in 6-well plates with 6 ml of complete medium and incubated with the drug for 24, 48, and 72 h. The medium was then changed to drug-free fresh medium and cultured for a total of 14 days. The cells were then fixed in methanol and stained with 0.5% crystal violet. The number of colonies with more than 50 cells was counted using an optical microscope (Nikon, TS100).

[6] = test system: HCT116 cells; assay: CRC experimental lung metastasis xenograft model; type: in vivo, C. B-17 SCID mice; conditions: 2 mg/kg i.p. every other day for 4 weeks; control 5.0 ± 0.5
Description: HCT116 cells (2 × 10^6 cells/100 μl) were injected into the tail vein of each mouse. The animals were then treated intraperitoneally (200 μl/animal) every other day for 4 weeks. […] The animals were euthanized with an anesthetic overdose (thiopental, 100 mg/kg) 1 day after treatment ended, and their lungs were excised and fixed in 4% formaldehyde. The number of lung macrometastases per animal was counted and processed for histological analysis.

cis-[Ru(phen)2(xant)](PF6) [RXC]
IC50 [1]: 9.1 µM | IC50 [2]: 2.58 µM | DNA fragmentation (sub-G0/G1) ([3]; 2.5 μM, 48 h, control […]): 7.1% | DNA fragmentation (sub-G0/G1) ([3]; 2.5 μM, 72 h, control 2.0%): 18.8% | DNA fragmentation (sub-G0/G1) ([3]; 5 μM, 48 h, control […]): 9.3% | DNA fragmentation (sub-G0/G1) ([3]; 5 μM, 72 h, control 2.0%): 22.4% | cell cycle effect ([3]; 10 μM, 24 h): cell cycle arrest in S-phase | DNA fragmentation (sub-G0/G1) ([3]; 10 μM, 48 h, control […]): 9.6% | DNA fragmentation (sub-G0/G1) ([3]; 10 μM, 72 h, control 2.0%): 34.3% | E-cadherin expression [4]: increased | LC3B expression [4]: increased | expression level of 4EBP1 (pT36/pT45) [4]: decreased | expression level of Akt1 [4]: decreased | expression level of Akt (pS473) [4]: decreased | expression level of Akt (pT308) [4]: no change | expression level of GSK-3β (pS9) [4]: decreased | expression level of NF-κB p65 (pS529) [4]: decreased | expression level of PI3K p85/p55 (pT458/pT199) [4]: no change | expression level of S6 (pS235/pS236) [4]: no change | expression level of elF4E (pS209) [4]: no change | expression level of mTOR (pS2448) [4]: decreased | expression of Hsp90 protein [4]: decreased | levels of PARP cleavage (Asp214) [4]: increased | p62/SQSTM1 expression [4]: decreasing | vimentin expression [4]: decreased | clonogenic survival [5]: inhibit the clonogenic survival | mean number of pulmonary metastatic nodules [6]: 1.3 ± 0.4 | lung histology (2 mg/kg, one animal): hemorrhage with hemosiderin deposits | hematological analysis (RXC 2 mg/kg, DOX 0.8 mg/kg, i.p. once a day for 2 weeks): reduction in erythrocytes | animals died during the treatment (RXC 2 mg/kg, DOX 0.8 mg/kg, i.p. once a day for 2 weeks, n = 15 per group): four | body weight (RXC 2 mg/kg, DOX 0.8 mg/kg, i.p. once a day for 2 weeks, p < 0.05): decrease in body weight | liver histology (RXC 2 mg/kg, DOX 0.8 mg/kg, mainly in treated animals): focal areas of hepatocyte coagulation necrosis | kidney histology (RXC 2 mg/kg, DOX 0.8 mg/kg, more evident than in control): focal areas of coagulation necrosis of the renal cortex tubules
